Data as given in ChEMBL document CHEMBL1132621, “Synthesis, structure-activity relationships, and in vivo evaluations of substituted di-tert-butylphenols as a novel class of potent, selective, and orally active cyclooxygenase-2 inhibitors. 1. Thiazolone and oxazolone series” (J Med Chem, 1999).

Key:
[1] = molecular target: T1, Prostaglandin G/H synthase 2 (Homo sapiens, UniProt P35354); test: IC50 against recombinant human Prostaglandin G/H synthase 2
T1 sequence (P35354 whole entry): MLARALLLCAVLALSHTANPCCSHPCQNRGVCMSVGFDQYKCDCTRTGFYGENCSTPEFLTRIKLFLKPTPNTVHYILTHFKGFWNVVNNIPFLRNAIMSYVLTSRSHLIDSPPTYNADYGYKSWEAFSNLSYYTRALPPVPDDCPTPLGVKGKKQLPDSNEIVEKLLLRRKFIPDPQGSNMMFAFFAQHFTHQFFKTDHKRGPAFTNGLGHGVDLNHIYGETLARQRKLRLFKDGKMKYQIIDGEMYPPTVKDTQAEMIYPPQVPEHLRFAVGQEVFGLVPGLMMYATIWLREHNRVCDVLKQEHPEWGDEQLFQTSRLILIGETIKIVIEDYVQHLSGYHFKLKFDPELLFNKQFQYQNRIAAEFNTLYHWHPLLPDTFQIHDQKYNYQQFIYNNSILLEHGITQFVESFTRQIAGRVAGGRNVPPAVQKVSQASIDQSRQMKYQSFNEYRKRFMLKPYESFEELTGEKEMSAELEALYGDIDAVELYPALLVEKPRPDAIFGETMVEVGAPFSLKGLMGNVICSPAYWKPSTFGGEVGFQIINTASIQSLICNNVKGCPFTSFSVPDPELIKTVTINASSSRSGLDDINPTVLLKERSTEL

[2] = molecular target: T2, Prostaglandin G/H synthase 1 (Homo sapiens, UniProt P23219); test: (§1) IC50 against Prostaglandin G/H synthase 1 from human platelet rich plasma
T2 sequence (P23219 whole entry): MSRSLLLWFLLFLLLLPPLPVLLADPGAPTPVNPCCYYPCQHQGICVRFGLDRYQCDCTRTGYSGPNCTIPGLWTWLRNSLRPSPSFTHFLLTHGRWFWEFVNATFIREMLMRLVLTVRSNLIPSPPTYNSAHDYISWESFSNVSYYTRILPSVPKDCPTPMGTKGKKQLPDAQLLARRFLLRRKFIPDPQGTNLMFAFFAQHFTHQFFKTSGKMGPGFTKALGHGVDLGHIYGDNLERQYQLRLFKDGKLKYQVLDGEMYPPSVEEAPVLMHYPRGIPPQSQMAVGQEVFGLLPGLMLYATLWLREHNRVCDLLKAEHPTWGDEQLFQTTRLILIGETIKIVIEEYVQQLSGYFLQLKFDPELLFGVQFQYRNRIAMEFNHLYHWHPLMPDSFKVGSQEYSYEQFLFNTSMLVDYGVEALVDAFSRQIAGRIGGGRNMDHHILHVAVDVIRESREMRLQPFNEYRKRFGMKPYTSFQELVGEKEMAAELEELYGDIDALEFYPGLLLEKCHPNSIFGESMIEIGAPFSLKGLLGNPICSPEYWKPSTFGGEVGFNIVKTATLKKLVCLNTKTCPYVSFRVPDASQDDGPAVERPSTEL

[3] = molecular target: T3, Prostaglandin G/H synthase 2 (Mus musculus, UniProt Q05769)
T3 sequence (Q05769 whole entry): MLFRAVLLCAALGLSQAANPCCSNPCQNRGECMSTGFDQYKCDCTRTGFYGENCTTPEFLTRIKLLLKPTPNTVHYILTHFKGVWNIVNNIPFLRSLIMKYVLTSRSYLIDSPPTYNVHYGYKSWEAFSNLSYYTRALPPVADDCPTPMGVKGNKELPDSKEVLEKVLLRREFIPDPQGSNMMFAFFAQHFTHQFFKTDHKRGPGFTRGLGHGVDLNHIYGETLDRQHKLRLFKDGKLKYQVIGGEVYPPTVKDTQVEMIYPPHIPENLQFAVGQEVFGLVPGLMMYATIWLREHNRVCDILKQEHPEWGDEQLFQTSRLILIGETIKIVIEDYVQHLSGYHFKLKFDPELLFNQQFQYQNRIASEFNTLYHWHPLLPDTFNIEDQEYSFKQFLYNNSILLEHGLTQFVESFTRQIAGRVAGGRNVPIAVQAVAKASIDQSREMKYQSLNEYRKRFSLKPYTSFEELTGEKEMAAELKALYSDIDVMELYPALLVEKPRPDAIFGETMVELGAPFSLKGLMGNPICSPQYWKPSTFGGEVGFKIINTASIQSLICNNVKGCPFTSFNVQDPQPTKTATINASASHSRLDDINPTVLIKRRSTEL
Description: IC50 value was determined against Prostaglandin G/H synthase 2 of J7744A.1 cell lines.

[4] = molecular target: T4, Prostaglandin G/H synthase 1 (Ovis aries, UniProt P05979)
T4 sequence (P05979 whole entry): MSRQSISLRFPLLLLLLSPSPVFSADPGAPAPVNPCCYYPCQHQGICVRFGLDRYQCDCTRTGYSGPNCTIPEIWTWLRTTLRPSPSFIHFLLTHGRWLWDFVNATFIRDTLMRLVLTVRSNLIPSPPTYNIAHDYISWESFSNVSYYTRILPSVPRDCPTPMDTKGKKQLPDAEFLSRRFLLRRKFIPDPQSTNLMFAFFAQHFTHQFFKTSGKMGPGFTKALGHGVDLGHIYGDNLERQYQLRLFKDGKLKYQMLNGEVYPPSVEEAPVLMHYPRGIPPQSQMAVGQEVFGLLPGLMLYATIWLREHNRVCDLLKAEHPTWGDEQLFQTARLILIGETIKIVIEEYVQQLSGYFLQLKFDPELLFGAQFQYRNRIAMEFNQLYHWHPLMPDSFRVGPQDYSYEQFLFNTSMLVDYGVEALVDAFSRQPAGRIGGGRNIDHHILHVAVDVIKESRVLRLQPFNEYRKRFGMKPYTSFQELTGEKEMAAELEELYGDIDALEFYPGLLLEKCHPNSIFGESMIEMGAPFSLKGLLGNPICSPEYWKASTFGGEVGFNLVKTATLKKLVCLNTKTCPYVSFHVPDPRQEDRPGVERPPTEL
Description: IC50 against ovine Prostaglandin G/H synthase 1

[5] = molecular target: T5, Prostaglandin G/H synthase 2 (Homo sapiens) (UniProt P35354); test: IC50 value against recombinant human Prostaglandin G/H synthase 2 at 10 uM
T5 sequence (whole entry): T1 sequence (P35354 whole entry)

[6] = molecular target: T6, Prostaglandin G/H synthase 1 (Ovis aries) (UniProt P05979); test: IC50 value against oCOX-1 at 10 uM; Not active
T6 sequence (whole entry): T4 sequence (P05979 whole entry)

[7] = molecular target: T2, Prostaglandin G/H synthase 1; test: as §1
Rattus norvegicus [8] = organism: Rattus norvegicus; test: ED50 measured by CFE assay; type: functional
Mus musculus = organism: Mus musculus; test: ED50 measured by hyperalgesia assay; type: functional
Rattus norvegicus [9] = organism: Rattus norvegicus; test: Percentage of gastric damage was measured in rats.; type: functional, Stomach
Rattus norvegicus [10] = organism: Rattus norvegicus; test: Lesion frequency measured in rats; type: functional
Rattus norvegicus [11] = organism: Rattus norvegicus; test: Percentage inhibition of the prostaglandin synthesis was measured in rats.; type: functional
[12] = molecular target: T6, Prostaglandin G/H synthase 1 (Ovis aries); test: IC50 value against oCOX-1 at 10 uM
[13] = molecular target: T1, Prostaglandin G/H synthase 2; test: IC50 value against recombinant human Prostaglandin G/H synthase 2; not active
[14] = molecular target: T6, Prostaglandin G/H synthase 1 (Ovis aries); test: IC50 value against ovine Prostaglandin G/H synthase 1; Not active; conditions: concentration not given here

SMILES	IC50 [1] [nM]	IC50 [2] [nM]	IC50 [3] [nM]	IC50 [4] [nM]	IC50 [7] [nM]	other results
CC(C)(C)c1cc(/C=C2\OC(N=C(N)N)=NC2=O)cc(C(C)(C)C)c1O	5100	4400	440	1200		
CONC1=NC(=O)/C(=C/c2cc(C(C)(C)C)c(O)c(C(C)(C)C)c2)O1		> 20000	790	7300		
CC(C)(C)c1cc(C=C2SC(=N)NC2=O)cc(C(C)(C)C)c1O [DARBUFELONE]			69		600	inhibition [5]: 41%; inhibition [6]: < 20%
CON(C)C1=NC(=O)/C(=C/c2cc(C(C)(C)C)c(O)c(C(C)(C)C)c2)S1	18000		1600	51000	5800	ED40 (Rattus norvegicus [8]): 8.1 mg/kg; ED40 (Mus musculus): 0.06 mg/kg; Damaged area (Rattus norvegicus [9]): 0.04%; Lesion frequency (Rattus norvegicus [10]): 25%; Inhibition (Rattus norvegicus [11]): 52.2%
C=CCONC1=NC(=O)/C(=C/c2cc(C(C)(C)C)c(O)c(C(C)(C)C)c2)O1	26000	> 20000	1900	4000		
CSC1=NC(=O)/C(=C/c2cc(C(C)(C)C)c(O)c(C(C)(C)C)c2)S1	1800		1600	63000	14400	
CC(C)(C)c1cc(/C=C2\SC(=S)NC2=O)cc(C(C)(C)C)c1O	1500	> 20000	390	24000		
CN1C(NC(=N)N)=NC(=O)/C1=C/c1cc(C(C)(C)C)c(O)c(C(C)(C)C)c1	81000	1500	750	27		
CC(C)(C)c1cc(/C=C2\SC(NC#N)=NC2=O)cc(C(C)(C)C)c1O	55000		230		> 20000	inhibition [12]: < 20%
CSC1=NC(=O)/C(=C/c2cc(C(C)(C)C)c(O)c(C(C)(C)C)c2)O1			540	1600	6400	IC50 [13]: Not Active
CONC1=NC(=O)/C(=C/c2cc(C(C)(C)C)c(O)c(C(C)(C)C)c2)S1						inhibition [14]: < 20%
CS(=O)(=O)Nc1ccc([N+](=O)[O-])cc1OC1CCCCC1 [NS-398]						ED40 (Rattus norvegicus [8]): 0.61 mg/kg; ED40 (Mus musculus): 7.4 mg/kg; Gastric damage (Rattus norvegicus [9]): 0%; Lesion frequency (Rattus norvegicus [10]): 0%; Inhibition (Rattus norvegicus [11]): 30.7%
CC(C)(C)c1cc(/C=C2\SC(N=C(N)N)=NC2=O)cc(C(C)(C)C)c1O	21000		430	6.1	250	
